Source: the supplement of paper PMC10307832

Assays:
Assay in all cases: relative viability (nuclei count vs DMSO), 5 days (fraction); higher = more cells survive
[1] = compound: CCN(CCO)CCCC(C)Nc1ccnc2cc(Cl)ccc12 [Hydroxychloroquine] + CC(=O)Nc1cccc(-n2c(=O)n(C3CC3)c(=O)c3c(Nc4ccc(I)cc4F)n(C)c(=O)c(C)c32)c1 [Trametinib] (partner 0.02 µM)
Outline: (§1)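 Relative viability divides the nuclei count in treated wells by that in vehicle wells. Lung cancer cell lines were seeded in 1536-well plates, dosed by pin tool the next day, and fixed and stained after 5 days in one step with final 0.05% Triton X-100, 1% formaldehyde and 1 ug/ml Hoechst. Dosing was a single drug or a fixed anchor-drug dose plus five library-drug doses (not always all listed) in √10 steps, and values are medians of duplicate plates imaged at 4×.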

[2] = compound: CCN(CCO)CCCC(C)Nc1ccnc2cc(Cl)ccc12 [Hydroxychloroquine] + CS(=O)(=O)CCNCc1ccc(-c2ccc3ncnc(Nc4ccc(OCc5cccc(F)c5)c(Cl)c4)c3c2)o1 [Lapatinib] (partner 2 µM)
Outline: as §1

[3] = compound: CCN(CCO)CCCC(C)Nc1ccnc2cc(Cl)ccc12 [Hydroxychloroquine] + N=C(N)NC(=N)NCCc1ccccc1 [Phenformin] (partner 250 µM)
Outline: as §1

[4] = compound: CCN(CCO)CCCC(C)Nc1ccnc2cc(Cl)ccc12 [Hydroxychloroquine] + O=C(c1cc(Cc2n[nH]c(=O)c3ccccc23)ccc1F)N1CCN(C(=O)C2CC2)CC1 [Olaparib] (partner 8 µM)
Outline: as §1

| Cell Line | relative viability ([1]; first compound 0.5 µM) | relative viability ([1]; first compound 1.581 µM) | relative viability ([1]; first compound 5 µM) | relative viability ([1]; first compound 15.81 µM) | relative viability ([1]; first compound 50 µM) | relative viability ([2]; first compound 0.5 µM) | relative viability ([2]; first compound 1.581 µM) | relative viability ([2]; first compound 5 µM) | relative viability ([2]; first compound 15.81 µM) | relative viability ([2]; first compound 50 µM) | relative viability ([3]; first compound 0.5 µM) | relative viability ([3]; first compound 1.581 µM) | relative viability ([3]; first compound 5 µM) | relative viability ([3]; first compound 15.81 µM) | relative viability ([3]; first compound 50 µM) | relative viability ([4]; first compound 0.5 µM) | relative viability ([4]; first compound 1.581 µM) | relative viability ([4]; first compound 5 µM) | relative viability ([4]; first compound 15.81 µM) | relative viability ([4]; first compound 50 µM) |
| --- | --- | --- | --- | --- | --- | --- | --- | --- | --- | --- | --- | --- | --- | --- | --- | --- | --- | --- | --- | --- |
| HCC-827 | 0.506 | 0.479 | 0.488 | 0.563 | 0.531 | 0.202 | 0.222 | 0.212 | 0.183 | 0.205 | 0.447 | 0.339 | 0.359 | 0.395 | 0.414 | 0.645 | 0.618 | 0.591 | 0.54 | 0.561 |
| HCC-78 | 0.823 | 0.834 | 0.878 | 0.752 | 0.904 | 1.29 | 0.706 | 0.492 | 0.746 | 0.764 | 0.809 | 0.739 | 0.716 | 0.653 | 0.741 | 0.899 | 0.841 | 0.794 | 0.864 | 0.923 |
| NCI-H2085 | 0.7 | 0.527 | 0.619 | 0.518 | 0.53 | 0.83 | 0.666 | 0.832 | 0.742 | 0.873 | 0.762 | 0.509 | 0.688 | 0.727 | 0.692 | 0.74 | 0.769 | 0.817 | 0.739 | 0.774 |
| PC-3 [JPC-3] | 0.694 | 0.69 | 0.668 | 0.723 | 0.681 | 0.485 | 0.423 | 0.421 | 0.46 | 0.501 | 0.448 | 0.457 | 0.448 | 0.432 | 0.507 | 1.23 | 1.14 | 1.09 | 1.2 | 1.16 |
| NCI-H2342 | 0.868 | 0.923 | 0.908 | 0.804 | 0.881 | – | – | – | – | – | 0.59 | 0.588 | 0.561 | 0.619 | 0.645 | 0.434 | 0.386 | 0.42 | 0.421 | 0.509 |
| A-427 | 0.752 | 0.639 | 0.697 | 0.715 | 0.675 | 0.996 | 0.955 | 1.07 | 1.01 | 1.09 | 0.316 | 0.293 | 0.315 | 0.284 | 0.229 | 0.816 | 0.702 | 0.61 | 0.691 | 0.816 |
| H3255 | 0.695 | 0.614 | 0.546 | 0.854 | 0.665 | 0.272 | 0.243 | 0.205 | 0.248 | 0.202 | 0.332 | 0.368 | 0.326 | 0.356 | 0.313 | 0.592 | 0.562 | 0.544 | 0.582 | 0.55 |
| HCC-44 | 1.07 | 1.04 | 1.14 | 1.08 | 1.1 | 0.989 | 1.07 | 1.08 | 1.06 | 1.04 | 0.316 | 0.145 | 0.171 | 0.226 | 0.234 | 0.964 | 1.02 | 1.03 | 1.01 | 1.04 |
| NCI-H1734 | 0.639 | 0.604 | 0.645 | 0.668 | 0.699 | 1.13 | 0.99 | 0.992 | 1.05 | 0.99 | 0.361 | 0.42 | 0.361 | 0.358 | 0.405 | 0.525 | 0.601 | 0.626 | 0.616 | 0.635 |
| NCI-H2228 | 0.322 | 0.421 | 0.654 | 0.584 | 0.365 | 1.05 | 0.999 | 0.972 | 0.705 | 1.18 | 0.265 | 0.342 | 0.348 | 0.407 | 0.292 | 0.716 | 0.75 | 0.575 | 0.653 | 0.623 |
| ABC-1 | – | – | – | – | – | 0.987 | 1.09 | 1.13 | 1.43 | 1.23 | 0.244 | 0.205 | 0.237 | 0.192 | 0.206 | 0.98 | 0.889 | 0.797 | 0.847 | 0.727 |
| COR-L23 | 0.602 | 0.582 | 0.616 | 0.767 | 0.712 | 0.681 | 0.992 | 0.992 | 1.23 | 1.21 | 0.445 | 0.467 | 0.496 | 0.49 | 0.485 | 0.315 | 0.345 | 0.381 | 0.353 | 0.387 |
| NCI-H441 | 0.467 | 0.39 | 0.386 | 0.349 | 0.462 | – | – | – | – | – | 0.922 | 0.726 | 0.815 | 0.94 | 0.944 | 0.543 | 0.551 | 0.498 | 0.547 | 0.553 |
| ChaGo-K-1 | 0.962 | 0.916 | 0.865 | 0.853 | 0.891 | – | – | – | – | – | 0.509 | 0.542 | 0.438 | 0.501 | 0.522 | 0.385 | 0.381 | 0.422 | 0.4 | 0.422 |
| EBC-1 | – | – | – | – | – | 0.212 | 0.183 | 0.213 | 0.225 | 0.182 | – | – | – | – | – | 0.711 | 0.766 | 0.722 | 0.772 | 0.573 |
| A549 | – | – | – | – | – | 0.976 | 0.859 | 0.906 | 0.974 | 0.977 | 0.154 | 0.0895 | 0.15 | 0.14 | 0.154 | 0.332 | 0.297 | 0.355 | 0.323 | 0.371 |
| NCI-H1703 | – | – | – | – | – | 0.959 | – | 1.05 | 1.29 | 0.763 | – | – | – | – | – | 0.424 | 0.431 | 0.556 | 0.467 | 0.446 |
| LCLC-103H | 0.684 | 0.642 | 0.678 | 0.719 | 0.695 | – | – | – | – | – | 0.347 | 0.33 | 0.341 | 0.335 | 0.346 | 0.754 | 0.688 | 0.84 | 0.766 | 0.78 |
| NCI-H1563 | – | – | – | – | – | 0.839 | 0.756 | 0.951 | 0.798 | 0.866 | 0.677 | 0.652 | 0.649 | 0.635 | 0.635 | – | – | – | – | – |
